According to the supplement of paper PMC10307832:

Assays:
Assay in all cases: relative viability (nuclei count vs DMSO), 5 days (fraction); higher = more cells survive
EMC-BAC-2 = test system: EMC-BAC-2
In short: (§1)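 Each reported value is a median over duplicate plates. It expresses relative viability: treated-well nuclei count divided by vehicle-well nuclei count. Lung cancer cell lines in 1536-well plates were dosed by pin tool a day after seeding, alone with one drug or with a fixed anchor-drug dose plus five library-drug doses (not always all listed) in √10 steps, and nuclei were counted after 5 days.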

NCI-H1975 = test system: NCI-H1975
In short: as §1

NCI-H1792 = test system: NCI-H1792
In short: as §1

PC-3 [JPC-3] = test system: PC-3 [JPC-3]
In short: as §1

SW 900 = test system: SW 900
In short: as §1

NCI-H1666 = test system: NCI-H1666
In short: as §1

COR-L 105 = test system: COR-L 105
In short: as §1

HCC-366 = test system: HCC-366
In short: as §1

NCI-H23 = test system: NCI-H23
In short: as §1

NCI-H1734 = test system: NCI-H1734
In short: as §1

NCI-H2170 = test system: NCI-H2170
In short: as §1

SK-MES-1 = test system: SK-MES-1
In short: as §1

NCI-H520 = test system: NCI-H520
In short: as §1

A-427 = test system: A-427
In short: as §1

LK-2 = test system: LK-2
In short: as §1

LOU-NH91 = test system: LOU-NH91
In short: as §1

H3255 = test system: H3255
In short: as §1

NCI-H1755 = test system: NCI-H1755
In short: as §1

EKVX = test system: EKVX
In short: as §1

ChaGo-K-1 = test system: ChaGo-K-1
In short: as §1

NCI-H441 = test system: NCI-H441
In short: as §1

NC(=O)Nc1cc(-c2cccc(F)c2)sc1C(=O)N[C@H]1CCCNC1 [AZD7762] + CC(=O)c1c(C)c2cnc(Nc3ccc(N4CCNCC4)cn3)nc2n(C2CCCC2)c1=O [Palbociclib] (partner 0.5 µM)
relative viability (EMC-BAC-2; first compound 0.01 µM): 0.555
relative viability (EMC-BAC-2; first compound 0.03162 µM): 0.527
relative viability (EMC-BAC-2; first compound 0.1 µM): 0.537
relative viability (EMC-BAC-2; first compound 0.3162 µM): 0.554
relative viability (EMC-BAC-2; first compound 1 µM): 0.541
relative viability (NCI-H1975; first compound 0.01 µM): 0.519
relative viability (NCI-H1975; first compound 0.03162 µM): 0.549
relative viability (NCI-H1975; first compound 0.1 µM): 0.585
relative viability (NCI-H1975; first compound 0.3162 µM): 0.352
relative viability (NCI-H1975; first compound 1 µM): 0.357
relative viability (NCI-H1792; first compound 0.01 µM): 0.725
relative viability (NCI-H1792; first compound 0.03162 µM): 0.705
relative viability (NCI-H1792; first compound 0.1 µM): 0.677
relative viability (NCI-H1792; first compound 0.3162 µM): 0.731
relative viability (NCI-H1792; first compound 1 µM): 0.785
relative viability (PC-3 [JPC-3]; first compound 0.01 µM): 0.558
relative viability (PC-3 [JPC-3]; first compound 0.03162 µM): 0.541
relative viability (PC-3 [JPC-3]; first compound 0.1 µM): 0.537
relative viability (PC-3 [JPC-3]; first compound 0.3162 µM): 0.538
relative viability (PC-3 [JPC-3]; first compound 1 µM): 0.504
relative viability (SW 900; first compound 0.01 µM): 0.597
relative viability (SW 900; first compound 0.03162 µM): 0.688
relative viability (SW 900; first compound 0.1 µM): 0.583
relative viability (SW 900; first compound 0.3162 µM): 0.444
relative viability (SW 900; first compound 1 µM): 0.504
relative viability (NCI-H1666; first compound 0.01 µM): 0.609
relative viability (NCI-H1666; first compound 0.03162 µM): 0.728
relative viability (NCI-H1666; first compound 0.1 µM): 0.701
relative viability (NCI-H1666; first compound 0.3162 µM): 0.565
relative viability (NCI-H1666; first compound 1 µM): 0.65
relative viability (COR-L 105; first compound 0.01 µM): 0.414
relative viability (COR-L 105; first compound 0.03162 µM): 0.415
relative viability (COR-L 105; first compound 0.1 µM): 0.367
relative viability (COR-L 105; first compound 0.3162 µM): 0.386
relative viability (COR-L 105; first compound 1 µM): 0.372
relative viability (HCC-366; first compound 0.01 µM): 0.478
relative viability (HCC-366; first compound 0.03162 µM): 0.387
relative viability (HCC-366; first compound 0.1 µM): 0.407
relative viability (HCC-366; first compound 0.3162 µM): 0.28
relative viability (HCC-366; first compound 1 µM): 0.106
relative viability (NCI-H23; first compound 0.01 µM): 0.58
relative viability (NCI-H23; first compound 0.03162 µM): 0.629
relative viability (NCI-H23; first compound 0.1 µM): 0.73
relative viability (NCI-H23; first compound 0.3162 µM): 0.456
relative viability (NCI-H23; first compound 1 µM): 0.281
relative viability (NCI-H1734; first compound 0.01 µM): 0.38
relative viability (NCI-H1734; first compound 0.03162 µM): 0.364
relative viability (NCI-H1734; first compound 0.1 µM): 0.395
relative viability (NCI-H1734; first compound 0.3162 µM): 0.356
relative viability (NCI-H1734; first compound 1 µM): 0.317
relative viability (NCI-H2170; first compound 0.01 µM): 0.437
relative viability (NCI-H2170; first compound 0.03162 µM): 0.397
relative viability (NCI-H2170; first compound 0.1 µM): 0.425
relative viability (NCI-H2170; first compound 0.3162 µM): 0.424
relative viability (NCI-H2170; first compound 1 µM): 0.415
relative viability (SK-MES-1; first compound 0.01 µM): 0.339
relative viability (SK-MES-1; first compound 0.03162 µM): 0.337
relative viability (SK-MES-1; first compound 0.1 µM): 0.328
relative viability (SK-MES-1; first compound 0.3162 µM): 0.279
relative viability (SK-MES-1; first compound 1 µM): 0.2
relative viability (NCI-H520; first compound 0.01 µM): 0.244
relative viability (NCI-H520; first compound 0.03162 µM): 0.255
relative viability (NCI-H520; first compound 0.1 µM): 0.189
relative viability (NCI-H520; first compound 0.3162 µM): 0.232
relative viability (NCI-H520; first compound 1 µM): 0.189
relative viability (A-427; first compound 0.01 µM): 0.568
relative viability (A-427; first compound 0.03162 µM): 0.552
relative viability (A-427; first compound 0.1 µM): 0.595
relative viability (A-427; first compound 0.3162 µM): 0.563
relative viability (A-427; first compound 1 µM): 0.334
relative viability (LK-2; first compound 0.01 µM): 0.6
relative viability (LK-2; first compound 0.03162 µM): 0.779
relative viability (LK-2; first compound 0.1 µM): 0.742
relative viability (LK-2; first compound 0.3162 µM): 0.612
relative viability (LK-2; first compound 1 µM): 0.572
relative viability (LOU-NH91; first compound 0.01 µM): 0.528
relative viability (LOU-NH91; first compound 0.03162 µM): 0.525
relative viability (LOU-NH91; first compound 0.1 µM): 0.542
relative viability (LOU-NH91; first compound 0.3162 µM): 0.609
relative viability (LOU-NH91; first compound 1 µM): 0.503
relative viability (H3255; first compound 0.01 µM): 0.329
relative viability (H3255; first compound 0.03162 µM): 0.312
relative viability (H3255; first compound 0.1 µM): 0.362
relative viability (H3255; first compound 0.3162 µM): 0.366
relative viability (H3255; first compound 1 µM): 0.35
relative viability (NCI-H1755; first compound 0.01 µM): 0.483
relative viability (NCI-H1755; first compound 0.03162 µM): 0.488
relative viability (NCI-H1755; first compound 0.1 µM): 0.466
relative viability (NCI-H1755; first compound 0.3162 µM): 0.495
relative viability (NCI-H1755; first compound 1 µM): 0.442
relative viability (EKVX; first compound 0.01 µM): 0.414
relative viability (EKVX; first compound 0.03162 µM): 0.415
relative viability (EKVX; first compound 0.1 µM): 0.372
relative viability (EKVX; first compound 0.3162 µM): 0.445
relative viability (EKVX; first compound 1 µM): 0.299
relative viability (ChaGo-K-1; first compound 0.01 µM): 1.01
relative viability (ChaGo-K-1; first compound 0.03162 µM): 0.953
relative viability (ChaGo-K-1; first compound 0.1 µM): 0.958
relative viability (ChaGo-K-1; first compound 0.3162 µM): 0.932
relative viability (ChaGo-K-1; first compound 1 µM): 1.03
relative viability (NCI-H441; first compound 0.01 µM): 0.242
relative viability (NCI-H441; first compound 0.03162 µM): 0.26
relative viability (NCI-H441; first compound 0.1 µM): 0.232
relative viability (NCI-H441; first compound 0.3162 µM): 0.251
relative viability (NCI-H441; first compound 1 µM): 0.256
